Results: patent US10988481B2, “Potent and selective mu opioid receptor modulators” (VIRGINIA COMMONWEALTH UNIVERSITY, priority 2016, dated 2021)
Read-outs that look alike come from different tables or passages of the source.

Legend:
[1] = target: KOR (Homo sapiens (Human), UniProt P41145); experiment: Competition binding assay at KOR ([3H]DPN, CHO cell membranes)
Procedure: (§1) Chinese hamster ovary (CHO) cells expressing MOR, KOR and DOR were cultured for use in this assay. The culture media used for MOR CHO cells contained 500 mL DMEM/F12 media, 10% FBS, 1% penicillin/streptomycin, and 2.75 mL G418. The DOR and KOR CHO cells were cultured in the same media except that 5% FBS was used instead of 10%. The cells are allowed to grow until they are 80-95% confluent after which they are split. The cells are continuously cultured and split until there were sufficient cells for the studies.
(§2) Once the cells reached confluence, cells were harvested, centrifuged at 1000×g for 10 minutes, and suspended in membrane buffer (50 mM Tris, 3 mM MgCl2, and 1 mM EGTA, pH 7.4). The cells were then homogenized, centrifuged at 50000×g for 10 minutes, and re-homogenized in membrane buffer. A Bradford assay was conducted to determine membrane protein concentrations, and membrane protein preps (3 μg/aliquot) were stored at −80° C.
(§3) The competition binding assay was conducted to determine the affinity and selectivity of the synthesized compounds to MOR over KOR and DOR. The Kd and Bmax values for [^3H]NLX at MOR and [^3H]DPN at KOR had been determined previously. […] [^3H]NLX was used to label MOR whilst [^3H]DPN was used to label both DOR and KOR. The potency of the new compounds in displacing the specific binding of the radioligand was determined by linear regression analysis of Hill plots. […] The IC50 values were determined and converted to Ki values using the Cheng—Prusoff equation (Rosenblum, A. et al. Exp Clin Psychopharmacol. 2008, 16 (5), 405-416).

[2] = test system: Swiss Webster mice; experiment: Warm-water tail immersion assay, antinociceptive (agonist) effect; format: in vivo; conditions: 10 mg/kg s.c., tail flick 20 min after injection, 56 °C
Procedure: (§4) FIG. 1A-D. Warm-water tail immersion assay in mice (n=5) at 56±0.1° C. All tested compounds were administered subcutaneously (s.c.). […] Compounds (10 mg/kg) were injected at Time 0. Twenty minutes after injection, tail flick was assessed with hot water. […] Tested compounds (10 mg/kg) were injected at Time 0. Five minutes later, morphine (10 mg/kg) was administered. Twenty minutes after morphine injection, tail flick was tested using hot water.
(§5) For the in vivo studies, male Swiss Webster mice were used for both the warm-water immersion and opioid withdrawal assays. The mice weighed 23-35 g and were housed five to a cage in animal care quarters maintained at 22° C. on a 12 hour light-dark cycle with food and water available ad libitum. The mice were transferred to the test room and the tests were then conducted 18 hours later. Protocols and procedures were approved by the Institutional Animal Care and Use Committee at Virginia Commonwealth University Medical Center and complied with the recommendations of the International Association for the Study of Pain.
Each indole analogue of naltrexamine was tested for its ability to produce antinociception and/or to antagonize the antinociceptive effects of morphine in mice using the warm-water tail immersion assay described by Coderre and Rollman. The a water bath temperature was maintained at 56±0.1° C. The baseline latency (control) was determined before injecting the compounds into the mice. […] To test for agonism, the tail immersion was conducted 20 min (time that morphine effect starts to peak) after injecting the indole analogues of 6α/β-naltrexamine. To prevent tissue damage, a 10 s maximum cut off time was imposed. Antinociceptive response was calculated as the percentage maximum possible effect (% MPE), where % MPE=[(test−control)/(10−control)]×100. […] The tail immersion test was conducted 20 min after giving morphine. % MPE was calculated for each mouse using at least five mice per drug. AD50 values were calculated using the least-squares linear regression analysis followed by calculation of 95% confidence interval by Bliss method. […]

[3] = target: T1, DOR (Homo sapiens (Human), UniProt P41143); experiment: Competition binding assay at DOR ([3H]DPN, CHO cell membranes)
T1 sequence (P41143 whole entry, looked up): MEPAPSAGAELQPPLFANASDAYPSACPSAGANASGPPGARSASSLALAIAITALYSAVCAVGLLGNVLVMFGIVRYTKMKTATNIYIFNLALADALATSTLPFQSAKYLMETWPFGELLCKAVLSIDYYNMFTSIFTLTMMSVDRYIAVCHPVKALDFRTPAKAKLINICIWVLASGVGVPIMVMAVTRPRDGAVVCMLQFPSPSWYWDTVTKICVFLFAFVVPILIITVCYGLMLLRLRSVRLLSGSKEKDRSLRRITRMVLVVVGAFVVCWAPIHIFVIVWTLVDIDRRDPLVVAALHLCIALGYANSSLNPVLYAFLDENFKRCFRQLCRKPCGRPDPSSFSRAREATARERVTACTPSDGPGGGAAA
Procedure: as §1, §2, §3

[4] = test system: morphine-pelleted mice; experiment: Opioid withdrawal assay in chronic morphine-exposed (pelleted) mice
Procedure: as §5
A 75 mg morphine pellet was implanted in to the base of the neck of the mice and the mice were then given time to recover in their home cages before the test was conducted. The mice were then allowed for 30 min habituation to an open-topped, square, clear Plexiglas observation chamber (26×26×26 cm^3) with lines partitioning the bottom into quadrants before they were given antagonist. All drugs and test compounds were administered subcutaneously (s.c.). […] Withdrawal commenced within 3 min after antagonist administration. Escape jumps, paw tremors and wet dog shakes were quantified by counting their occurrences over 20 min for each mouse using five mice per drug. The data is given as the mean±SEM. One-way ANOVA followed by the post hoc Dunnett test were performed to assess significance using the Prism 6.0 software.

[5] = test system: Swiss Webster mice; experiment: Warm-water tail immersion assay, blockage of the antinociceptive effect of morphine; conditions: for Blockage of morphine-mediated antinociception: 10 mg/kg s.c. 5 min before morphine 10 mg/kg, tested 20 min after morphine
Procedure: as §4, §5
Each indole analogue of naltrexamine was tested for its ability to produce antinociception and/or to antagonize the antinociceptive effects of morphine in mice using the warm-water tail immersion assay described by Coderre and Rollman. The a water bath temperature was maintained at 56±0.1° C. The baseline latency (control) was determined before injecting the compounds into the mice. […] To test for agonism, the tail immersion was conducted 20 min (time that morphine effect starts to peak) after injecting the indole analogues of 6α/β-naltrexamine. To prevent tissue damage, a 10 s maximum cut off time was imposed. Antinociceptive response was calculated as the percentage maximum possible effect (% MPE), where % MPE=[(test−control)/(10−control)]×100. In the antagonism study, the 6α/β-naltrexamine derivatives were given 5 min before morphine. The tail immersion test was conducted 20 min after giving morphine. % MPE was calculated for each mouse using at least five mice per drug. AD50 values were calculated using the least-squares linear regression analysis followed by calculation of 95% confidence interval by Bliss method. A higher % MPE indicates a stronger antinociception effect by the ligand.

[6] = target: MOR (Mus musculus, UniProt P42866); format: biochemical; conditions: relative to 3 μM DAMGO at MOR
Sequence of MOR (Mus musculus, UniProt P42866) (P42866 whole entry, looked up): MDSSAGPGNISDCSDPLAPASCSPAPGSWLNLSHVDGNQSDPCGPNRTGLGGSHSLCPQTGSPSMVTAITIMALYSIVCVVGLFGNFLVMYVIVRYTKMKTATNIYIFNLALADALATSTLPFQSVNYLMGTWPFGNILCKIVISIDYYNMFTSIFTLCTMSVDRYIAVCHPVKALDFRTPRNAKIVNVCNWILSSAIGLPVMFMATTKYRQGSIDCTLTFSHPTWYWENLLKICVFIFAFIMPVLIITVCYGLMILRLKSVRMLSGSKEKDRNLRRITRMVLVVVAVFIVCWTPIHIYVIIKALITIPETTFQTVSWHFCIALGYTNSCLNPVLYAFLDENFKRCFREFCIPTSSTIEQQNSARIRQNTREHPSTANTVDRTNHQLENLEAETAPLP
Procedure: The [^35S]GTPγS functional assay was used to determine whether the synthesized compounds are agonists. The agonist's activity of the compounds was measured relative to 3 μM DAMGO at MOR. In this assay, upon receptor activation due to agonist binding, [^35S]GTPγS binds to the Gα subunit. Thus, [^35S]GTPγS replaces endogenous GTP and since the γ-thiophosphate bond is resistant to hydrolysis by GTPase, [^35S]GTPγS labelled Gα subunits accumulate and can be quantified by measuring the amount of incorporated [^35S].
The Bradford assay was then conducted to determine the concentration of the membrane protein using BSA as the standard. Suitable dilutions of membrane protein, [^35S]GTPγS), cold GTPγS, DAMGO and GDP were made in TME. The desired amount of the protein per tube was 10 μg. All the test-tubes were vortexed and incubated in the shaking water bath at 30° C. for 90 minutes, after which bound radioligand was filtered and rinsed three times with cold Tris buffer. The filtered bound radioligand was then transferred into scintillation tubes with 4 mL of scintillation fluid and radioligand was quantified. However, counting was delayed for 9 hrs to allow the radioactivity to enter the solution. Percent DAMGO stimulation was defined as (net stimulated binding of test compound/net stimulated binding of DAMGO)×100%. The normalized data were subjected to nonlinear regression analysis to determine EC50 and Emax values using Prism 6.0 software (GraphPad Software, San Diego, Calif.). The assay was performed in triplicate and repeated at least three times.

[7] = target: MOR (Homo sapiens (Human), UniProt P35372); conditions: background statement; cited from earlier work
Sequence of MOR (Homo sapiens (Human), UniProt P35372) (P35372 whole entry): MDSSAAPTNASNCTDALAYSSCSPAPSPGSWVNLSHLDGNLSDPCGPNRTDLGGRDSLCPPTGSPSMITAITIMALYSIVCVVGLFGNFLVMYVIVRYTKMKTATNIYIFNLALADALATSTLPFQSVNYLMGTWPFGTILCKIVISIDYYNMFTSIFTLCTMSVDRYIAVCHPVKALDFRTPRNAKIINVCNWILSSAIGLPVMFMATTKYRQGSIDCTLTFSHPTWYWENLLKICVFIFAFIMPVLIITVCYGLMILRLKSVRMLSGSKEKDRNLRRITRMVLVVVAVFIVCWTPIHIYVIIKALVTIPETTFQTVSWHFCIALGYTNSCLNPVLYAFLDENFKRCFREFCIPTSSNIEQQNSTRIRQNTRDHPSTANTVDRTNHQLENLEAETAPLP

[8] = target: T1, DOR; conditions: read-out: Ki (nM) ± SEM δ; values obtained from previous experiments; cited from earlier work
[9] = 50 mg/kg s.c., morphine-pelleted mice
[10] = [3H]DPN, KOR CHO membranes, read-out: Ki (nM) ± SEM κ
[11] = [3H]DPN, DOR CHO membranes, read-out: Ki (nM) ± SEM δ

Cl.O=C(N[C@@H]1CC[C@@]2(O)[C@H]3Cc4ccc(O)c5c4[C@@]2(CCN3CC2CC2)[C@H]1O5)c1cc2ccccc2[nH]1 [Compound 10, 17-Cyclopropylmethyl-3,14β-dihydroxy-4,5α-epoxy-6β-(indole-2-carboxamido)morphinan]
Ki [1]: 0.178 ± 0.002 nM | Antinociceptive effect (agonism) in warm-water immersion assay [2]: opioid agonist | Ki [3]: 1.54 ± 0.473 nM

Cl.O=C(N[C@H]1CC[C@@]2(O)[C@H]3Cc4ccc(O)c5c4[C@@]2(CCN3CC2CC2)[C@H]1O5)c1cccc2cc[nH]c12 [Compound 6, 17-Cyclopropylmethyl-3,14β-dihydroxy-4,5α-epoxy-6α-(indole-7-carboxamido)morphinan]
Escape jumps compared with naltrexone 1 mg/kg ([4]; 1 mg/kg s.c., morphine-pelleted mice): significantly less escape jumps than naltrexone | Diarrhea ([4]; 1 mg/kg, morphine pelleted mice (not in placebo pelleted mice)): produced diarrhea | Paw tremors compared with naltrexone 1 mg/kg [4, 9]: significantly less paw tremors than naltrexone | Wet-dog shakes compared with naltrexone 1 mg/kg [4, 9]: significantly less wet-dog shakes than naltrexone | Escape jumps compared with naltrexone 1 mg/kg ([4]; 50 mg/kg s.c., morphine-pelleted mice, not significantly different): more escape jumps | Withdrawal symptoms in placebo-pelleted mice ([4]; 50 mg/kg s.c., placebo-pelleted mice): did not induce any significant withdrawal symptoms | Blockage of morphine-mediated antinociception [5]: effectively blocked morphine-mediated antinociception | AD50 (95% CL), opioid antagonist effect ([5]; dose-dependent study against morphine, s.c.): 2.39 (0.46-12.47) mg/kg | Ki [1, 10]: 1.69 ± 0.35 nM | Emax(% DAMGO) ± SEM [6]: 20.95 ± 4.43 % DAMGO | Ki [3, 11]: 10.9 ± 2.94 nM

Cl.O=C(Cc1c[nH]c2ccccc12)N[C@@H]1CC[C@@]2(O)[C@H]3Cc4ccc(O)c5c4[C@@]2(CCN3CC2CC2)[C@H]1O5 [Compound 16, 17-Cyclopropylmethyl-3,14β-dihydroxy-4,5α-epoxy-6β-[2-(indol-3-yl)acetamido)morphinan]
Ki [1, 10]: 0.947 ± 0.114 nM | Antinociceptive effect (agonism) in warm-water immersion assay [2]: partial opioid agonists | Emax(% DAMGO) ± SEM [6]: 50.17 ± 7.75 % DAMGO | Ki [3, 11]: 37 ± 1.21 nM

COc1cccc2c1[C@]13CCN(CC4CC4)[C@H](C2)[C@]1(OC)CCC(=O)C3 [Cyprodime]
Selectivity DOR/MOR (MOR over DOR) [7]: ≈ 39 fold | Selectivity KOR/MOR [7]: ≈ 10

Cl.O=C(N[C@@H]1CC[C@@]2(O)[C@H]3Cc4ccc(O)c5c4[C@@]2(CCN3CC2CC2)[C@H]1O5)c1cccc2cc[nH]c12 [Compound 15, 17-Cyclopropylmethyl-3,14β-dihydroxy-4,5α-epoxy-6β-(indole-7-carboxamido)morphinan]
Blockage of morphine-mediated antinociception [5]: effectively blocked morphine-mediated antinociception | Ki [1]: 0.52 ± 0.094 nM | Antinociceptive effect (agonism) in warm-water immersion assay [2]: partial opioid agonists | Emax(% DAMGO) ± SEM [6]: 32.0 ± 4.6 % DAMGO | Ki [3]: 30.4 ± 9.49 nM

Cl.O=C(N[C@H]1CC[C@@]2(O)[C@H]3Cc4ccc(O)c5c4[C@@]2(CCN3CC2CC2)[C@H]1O5)c1cc2ccccc2cn1 [NAQ, 17-Cyclopropylmethyl-3,14β-Dihydroxy-4,5α-Epoxy-6α-(Isoquinoline-3-Carboxamido)morphinan]
Ki [8]: 162 ± 15 nM
